Here are results for three compounds from paper PMC11334910, “Activity-Based Protein Profiling of RHBDL4 Reveals Proteolysis of the Enzyme and a Distinct Inhibitor Profile” (ACS Chemical Biology, 2024).

Read-outs that look alike come from different tables or passages of the source.

For orientation: IC50 means the concentration needed to halve the response being measured. A high value points to a need for much substance.

Assay [1] deals with T1, human RHBDL4 (hRHBDL4) (Homo sapiens, UniProt Q8TEB9).
T1 sequence (Q8TEB9 1-315): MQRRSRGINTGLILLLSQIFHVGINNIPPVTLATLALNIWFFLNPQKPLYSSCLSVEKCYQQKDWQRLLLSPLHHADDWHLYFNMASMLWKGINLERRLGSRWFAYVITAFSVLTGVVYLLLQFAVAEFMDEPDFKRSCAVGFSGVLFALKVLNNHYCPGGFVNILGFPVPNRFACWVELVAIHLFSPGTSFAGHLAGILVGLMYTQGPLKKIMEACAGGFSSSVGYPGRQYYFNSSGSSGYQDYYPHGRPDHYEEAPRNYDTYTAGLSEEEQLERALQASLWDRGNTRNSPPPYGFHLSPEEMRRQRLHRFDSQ
Put plainly: competitive ABPP with FP-Rh, dose-response. Format: biochemical. On the set-up: gene RHBDD1.

Assay [2] concerns the target T2, hPARL (presenilin-associated rhomboid-like protein, mitochondrial) (Homo sapiens, UniProt Q9H300).
T2 construct: gene PARL; hPARL in HEK293T membrane proteome
Put plainly: competitive ABPP, dose-response. Format: biochemical.

Assay [3] has as its target T1, human RHBDL4 (hRHBDL4). Put plainly: competitive ABPP with FP-Rh at […]. The arrangement: gene RHBDD1; hRHBDL4 in HEK293T membrane proteome. Format: biochemical.
For assay [4], the target named is T2, hPARL (presenilin-associated rhomboid-like protein, mitochondrial). Put plainly: competitive ABPP, dose-response. Format: cell-based.

T2 sequence (Q9H300 53-379): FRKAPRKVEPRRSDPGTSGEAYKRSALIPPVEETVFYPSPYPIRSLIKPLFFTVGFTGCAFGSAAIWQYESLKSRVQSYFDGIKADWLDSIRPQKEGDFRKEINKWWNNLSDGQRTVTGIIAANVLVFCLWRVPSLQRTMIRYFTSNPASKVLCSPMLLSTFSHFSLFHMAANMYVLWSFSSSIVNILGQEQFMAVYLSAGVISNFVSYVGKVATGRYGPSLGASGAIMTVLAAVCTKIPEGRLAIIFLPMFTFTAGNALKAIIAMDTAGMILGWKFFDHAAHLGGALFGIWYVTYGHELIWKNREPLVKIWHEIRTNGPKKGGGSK

As for `O=c1oc(Cl)c(Cl)c2ccccc12` [3,4-DCI], the IC50 is 1.1 µM on human RHBDL4 (hRHBDL4) [1] and 25 µM in assay [2].

`O=C(OCN1C(=O)c2ccccc2S1(=O)=O)c1ccccc1Cl` [BSc5195]: at human RHBDL4 (hRHBDL4) [3], the “competitive ABPP with FP-Rh at 100 μM” value is “nearly complete competition at 100”.

As for `O=C1CCC(=O)N1S(=O)(=O)c1ccccc1` [WHP3A], the IC50 entry in assay [4] is reported as “low micromolar”.
